# How the values were obtained:
# erk1 and erk2 = erk1 and erk2 activation in isolated islets; type: cell-based; conditions: human islets; FIG. 6
# Excerpt: (§1) The former two pathways are known to be associated with the induction of the apoptotic program, while the latter may be protective.
# Signalling through erk has been associated with cell differentiation and cell survival (FIG. 6).
# islets = experiment: Cell death detection ELISA (DNA fragmentation) of cultured islets; type: cell-based, Syrian golden hamsters; conditions: 3 days serum then 9 days in 25% DCM or 34 ng/ml IGF-II; mean±SEM, n=6; FIG. 10
# Method: Three experimental groups were designed for this study: Group 1 (control), with 100 islets per culture flask; Group 2 (islets plus ducts), with 100 islets plus 80 ducts per flask; and Group 3 (islets in 25% DCM), with 100 islets per flask.
# All tissues were embedded in rat tail collagen and incubated in a humidified atmosphere of 95% air, 5% CO2 at 37° C. The baseline medium for all groups was DMEM/F12, supplemented with 10% NuSerum for three days at the start of the culture period, followed by 9 days of serum-free incubation. The medium was changed every other day.
# After a 12 day incubation period, the media was removed and 3 ml of collagenase XI (0.25 mg/ml) was added to each flask for 40 min. The islets were hand-picked and washed three times in Hank's buffered salt solution (HBSS, Gibco, Montreal, Quebec, Canada). The presence of DNA fragmentation, a characteristic feature of apoptosis was determined using a cell death detection ELISA (Boehringer Mannheim, Laval, Quebec). The results were expressed as absorbance at 405 nm and corrected for total DNA content. DNA (μg) was measured by fluorometry using disbenzimidazole (Hoechst 33258, Sigma, Montreal, Quebec) as described (Labarca & Pagen, 1987, Analytical Biochemistry 102:44-52).
# The islets were embedded in rat tail collagen and cultured in DMEM/F12 supplemented with 10% NuSerum. […]
# p38 = p38 activation in canine islets (Western blot); type: cell-based; conditions: collagen 400 μg/ml
# Excerpt: as §1
# Signaling through the p38 MAP kinase is one pathway whose downstream effectors have been implicated in […].
# In addition to growth factors, evidence is provided for the beneficial effect of matrix molecules, e.g. fibronectin for human islets, and collagen for canine islets (FIGS. 4 and 5) The data for p38 activation and its modulation by collagen represents the effect of 200 μg/ml of collagen type 1. Not shown, is that collagen in a concentration of 400 μg/ml will decrease p38 activation by over 50%.
Substance,effect on erk1 and erk2 activation (erk1 and erk2),also measured
IGF-I: insulin-like growth factor-1,positive effect,–
"IGF-II: insulin-like growth factor II, growth factor added at 34 ng/ml",–,"cell death ELISA (DNA fragmentation), IGF-II study (islets): 2.5 ± 1.0"
collagen,–,decrease of p38 activation (p38): over 50%
insulin,positive effect,–

# — patent US6562620B2, “Medium to promote islet cell survival” (McGill University, priority 1997, dated 2003)
